Test results taken from patent US5880116A, “Use of celastrol to treat alzheimer's disease” (Neurocal International, priority 1996, dated 1999).

Experiments:
[1] = system: splenic lymphocytes; settings: dose dependent; cited from earlier work
[2] = system: AA rats with experimental adjuvant arthritis; settings: rat, in vivo; cited from earlier work
[3] = system: rats (passive avoidance learning); assay: Passive avoidance behavior (PAB) learning, fixed-ratio maze paradigm; type: in vivo, rat (female Sprague-Dawley); settings: for Av: number of avoidances during 10 trials / La: mean latency time per trial: N = 6, mean ± SD
Method: (§1) Celastrol or vehicle was administered to rats as described below. Female Sprague-Dawley rats (obtained from Santiago University, Santiago de Compostela, Spain) were about 3 months old and weighed 200-250 g. The animals were maintained under standard conditions at the Euroespes Institute laboratory facilities.
(§2) The celastrol formulation was purchased in China in the form of pills under the name of "Leigongtengpian." The dose is expressed as the content of celastrol. The celastrol was dissolved in DMSO (35 μg/mL) and then adjusted to the appropriate concentration with 0.9% saline. Doses of 1.4, 7 and 35 μg/kg were administered intraperitoneally (i.p.) in a total injection volume of 2 ml/kg.
Two hours after treatment, rats were tested for passive avoidance behavior in a PAB fixed-ratio maze paradigm, in which they learned to stay on a neutral platform (18×18 cm) in order to avoid a continuous electric footshock in the surrounding area during 10 trials (30 seconds each). The inter-trial interval was 30 seconds. The number of complete avoidances during 10 trials (Av; successful trials in which rat remains in the neutral area the entire 30-second period) and the latency per trial (La; time spent in the neutral platform before leaving it in a trial) were taken as learning indices. The number of avoidances represents a yes/no or discontinuous variable reflecting learning ability of the rats. In general, good learners perform more avoidances because they need fewer trials to learn to avoid footshock. Latency is a continuous variable measuring the time the rat is on the neutral platform without receiving footshock. Rats having the best memory or learning capacity spend more time on the neutral area. Therefore, latency is also an index of learning ability. Finally, when a drug increases the number of avoidances and mean trial latency in this paradigm, it means that this drug improves learning and memory function.
(§3) Data were statistically analyzed by the ANOVA and the Duncan test for multiple comparisons. Results were expressed as mean ± standard deviation (SD) in tables and as mean ± standard error of […] (SEM) in figures.

[4] = system: peritoneal macrophages; settings: dose dependent; cited from earlier work
[5] = system: rats (psychomotor coordination); assay: Psychomotor coordination (PMC) in rota-rod apparatus; type: in vivo, rat (female Sprague-Dawley); settings: for PMC: Psychomotor coordination: N = 6, mean ± SD
Method: as §1, §2
At one hour after treatment, psychomotor coordination (PMC) was evaluated in a rota-rod apparatus (Letica Scientifiic Instruments, Barcelona, Spain) which consists of a roller turning at a constant pre-selected velocity (4-40 rpm) or at an increasing velocity with constant acceleration (for example, from 4 to 40 rpm in 300 seconds), and four digital counters that are stopped when the rat falls from the rod and lowers a pedal. In this test, the animals ran on a rod with constant acceleration until they fell off because they are unable to run at the necessary velocity to maintain equilibrium. Generally, there are two main causes of low performance in this test 1) myorelaxation and 2) balance disorders, as in some vestibular and brain lesions. Improved performance is seen with drugs improving muscular strength, motor coordination and/or balance. Mean running time of five consecutive trials was taken as an index of PMC.
as §3

[6] = system: ICR inbred mice; settings: 1-3 mg/kg i.p. daily; cited from earlier work
[7] = system: splenic cells; settings: cited from earlier work
[8] = in words; cited from earlier work
[9] = system: rats (psychomotor activity); assay: Open-field psychomotor activity (PMA, VA, FF) in OUCEM-86 electronic maze; type: in vivo, rat (female Sprague-Dawley); settings: for PMA: Psychomotor activity: N = 6, mean ± SD, 30 min recording
Method: as §1, §2
Immediately after injection, the animals were placed in the Osaka University Computerized Electronic Maze system (OUCEM-86, obtained from Bio Medica, Ltd., Osaka, Japan). The system, as previously described by Cacabelos et al (Prog. Med. 7:763-773, 1987), is integrated with the following components: A Programmable Electronic Platform (PEP) which measures 62 cm×62 cm and is equipped with 48 photo beam sensors (OPX-T30) to detect the three-dimensional position (four-footed, two-footed or rearing, and jumping) of the test animal; a Programming Panel (PP) (Model BECM-0064) for paradigm simulation; a Shock Generator Scrambler (SGS)(Model BSG-1065) to apply continuous or discontinuous electric currents to the PEP; a Control Station interface device to automatically computerize behavioral parameters; and a Computerized System (NEC PC-9801F) for data processing and experimental setting.
Tests were conducted in an open-field paradigm (where the rat can move freely) as previously described (Cacabelos et al. 1987) where psychomotor activity (PMA) was automatically recorded. Total PMA is the sum of horizontal and vertical movements. Horizontal movements are four-footed movements (FF). Vertical activity (VA) includes jumping and rearing (or two-footed) movements. The temporal profile of PMA during the 30 minutes of recording was also studied. PMA, FF and VA were expressed as total inputs/outputs (I/O). In general, increases in PMA, mainly in VA, are observed in situations of stress. A global increase in PMA is also found under treatment with stimulants and in rats with brain cholinergic deficits. Conversely, decreases in PMA are typical of sedative drugs, for instance.
as §3

[10] = system: agitation and aggression; settings: in vivo; cited from earlier work
[11] = system: patients clinically diagnosed with early AD; settings: six months; cited from earlier work
[12] = system: AD patients; settings: file history of US 5,192,753; cited from earlier work
[13] = system: patients with AD; settings: a subgroup of patients with AD; cited from earlier work
[14] = 1.4 μg/kg i.p., 2 hours after treatment
[15] = 7.0 μg/kg i.p., * p < 0.05 vs control (0.0)

## CC1=C(O)C(=O)C=C2C1=CC=C1[C@@]2(C)CC[C@@]2(C)[C@@H]3C[C@](C)(C(=O)O)CC[C@]3(C)CC[C@]12C [Celastrol]
[1]
  Con A-induced IL-2 production: decreased
[2]
  joint edema: reduced joint edema
  lipid-peroxidation and free radical formation: inhibition of lipid-peroxidation and free radical formation
[3]; [14]
  Av: number of avoidances during 10 trials: 4.3 ± 2.1 n°
  La: mean latency time per trial: 18.3 ± 5.2 s
[3]; 7 μg group
  Av, significance of difference: reached significance
  La, significance of difference: reached significance
[3]; [15]
  Av: number of avoidances during 10 trials: 5.1 ± 1.8 n°
  La: mean latency time per trial: 20.3 ± 2.8 s
[3]; 7.0 μg/kg treatment group
  latency time on the neutral platform (FIG. 16), in words: learned significantly more quickly to stay on the platform and avoid the shock
[3]; 35 μg group
  La, significance of difference: reached significance
[3]; 35.0 μg/kg i.p., 2 hours after treatment
  La: mean latency time per trial: 18.8 ± 4.6 s
[3]; 35.0 μg/kg i.p., * p < 0.05 vs control (0.0)
  Av: number of avoidances during 10 trials: 5.0 ± 1.4 n°
[3]; 7 and 35 μg treatment groups vs no-treatment group
  numbers of complete avoidances during 10 trials (FIG. 15), in words: scored significantly higher
[3]; i.p.
  dose of maximum effect on PAB scores: 7 µg/kg
[4]
  LPS-induced IL-1 production: decreased
[5]; 1.4 μg/kg i.p., 1 hour after treatment
  PMC: Psychomotor coordination: 99.4 ± 19.2 sec/trial
[5]; 7 μg group
  PMC, significance of difference: reached significance
[5]; 7.0 μg/kg i.p., ** p < 0.01 vs control (0.0)
  PMC: Psychomotor coordination: 126.3 ± 37.6 sec/trial
[5]; 35.0 μg/kg i.p., 1 hour after treatment
  PMC: Psychomotor coordination: 106.5 ± 21.3 sec/trial
[5]; 1.4, 7 and 35 μg treatment groups vs no-treatment group
  PMC (FIG. 14), in words: all scored better than the no-treatment group
[5]; i.p.
  dose of maximum effect on PMC: 7 µg/kg
[6]
  antibody formation: reduced antibody formation very significantly
  circulating immune complex levels: decreased circulating immune complex levels
  serum complement: increased serum complement
[7]; PHA, Con A, LPS and PWM
  concentration of optimal effects on mitogen-induced splenic cell proliferation: 0.1 µg/mL
[7]; in words
  proliferation of splenic cells induced by mitogens PHA, Con A, LPS and PWM: inhibited proliferation
[8]
  insecticidal activity: insecticidal inert
[9]; 1.4 μg group, significance not reached
  PMA vs untreated group, in words: higher than for the untreated group
[9]; 1.4 μg/kg i.p.
  PMA: Psychomotor activity: 3011 ± 1185 I/O
[9]; 7.0 μg/kg i.p.
  PMA: Psychomotor activity: 2200 ± 1203 I/O
[9]; 35.0 μg/kg i.p.
  PMA: Psychomotor activity: 1637 ± 796 I/O
[9]; 1.4 and 7 μg groups
  four-footed (FF) activity (FIG. 12), in words: improved somewhat
[9]; 1.4 and 7 μg treatment groups
  PMA (total activity, FIG. 10), in words: fared somewhat better
[9]; 1.4 and 7 μg treatment groups vs no-treatment group
  vertical activity (VA, FIG. 11), in words: fared somewhat better than the no-treatment group
[9]; all treatment groups
  PMA over the thirty minute test interval (FIG. 13), in words: a general trend of decreasing activity during the test period
[9]; i.p.
  dose of maximum effect on PMA: 1.4 µg/kg

## CC(C)NCC(O)COc1cccc2ccccc12 (stereo not shown) [Propranolol]
[10]
  agitation and aggression: reported to help reduce agitation and aggression

## O=C1CC2(CCCC2)CC(=O)N1CCCCN1CCN(c2ncccn2)CC1 [buspirone]
[10]
  agitation and aggression: reported to help reduce agitation and aggression

## COc1ccc2c(c1)c(CC(=O)O)c(C)n2C(=O)c1ccc(Cl)cc1 [indomethacin]
[11]
  ADAS: only slight decrements
  BNT: slight improvement
  MMSE: almost no change
  TT: only slight decrements

## CC(C)NCC(O)COc1cccc2[nH]ccc12 (stereo not shown) [pindolol]
[10]
  agitation and aggression: reported to help reduce agitation and aggression

## C[C@]12C=CC(=O)C=C1CC[C@@H]1[C@@H]2C(=O)C[C@@]2(C)[C@H]1CC[C@]2(O)C(=O)CO [prednisone]
[12]
  effect in AD patients: no effect

## Nc1c2c(nc3ccccc13)CCCC2 [tacrine]
[13]
  cognitive and functional measures: improvement
